According to patent US5158939A, “Method of stimulating the immune systems of animals and compositions useful therefor” (priority 1990, dated 1992):
“Also recorded” adds a separate entry of the source. Where two headings read alike, the source gives them in different places.

What was measured:
[1] = test system: RAW 264.7 murine macrophage cells; test: Cachectin/TNF production by RAW 264.7 cells, immunoblot; format: cell-based
Description: For the […] to activate the RAW 264.7 murine macrophage cell line, we chose the toxic deep rough chemotype LPS (ReLPS) from Escherichia coli D31m4, which was recently purified and characterized^15. […] This is a clear example of a lipid A derivative showing strong antagonism against a toxic agonist in the induction of cachectin.
The immunoblot method was used to quantitate the cachectin/TNF production by RAW 264.7 murine macrophage cells. RAW 264.7 cells^4,16 were seeded in 24-well plates (Nunc) at a density of 3×10^5 cells/well in Dulbecco's modified Eagle's medium supplemented with 5 percent fetal calf serum. After 12 hours, cell monolayers were washed twice with 1 ml of serum-free medium and then left covered with […] of the same. An aqueous suspension of DPLA and/or ReLPS was then added to a final concentration indicated. Cells were incubated for 12 hours, after which the medium was removed for measurement of TNF by immunoblotting. One hundred μl of medium was mixed with 100 μl of SDS-containing sample buffer, heated to 100° C. for 5 minutes, and subjected to electrophoresis in a 10-15% polyacrylamide gradient gel. Proteins were then transferred to nitrocellulose electrophoretically, and TNF was visualized through the use of a rabbit anti-mouse TNF polyclonal serum^3,5 applied at a 1:100 dilution, followed by alkaline phosphatase-conjugated goat anti-rabbit IgG (Bio-Rad).
Bands were visualized using nitroblue tetrazolium. Approximately 0.1 ng of cachectin/TNF may be detected as a band. The antiserum also recognized the processing intermediates (prohormones) on Western blot.

[2] = test system: RAW 264.7 cells; test: TNF production by RAW 264.7 cells, dilution for 50% killing of indicator cell line L929; format: cell-based, murine; settings: for Dilution to get 50% killing: Table 1
Description: The TNF unit is derived by determining how far one can dilute the supernatant of the culture to achieve 50% killing of an indicator cell line.
TNF unit was derived by determining dilution of culture supernatant that kills 50 percent of the indicator cell line.
DPLA was added 2 hours before exposing culture to ReLPS. The ReLPS and DPLA were complexed with bovine serum albumin.^1

[3] = Toxicity / endotoxic activity (general statements); settings: in words
[4] = test system: serum TNF; test: Serum TNF rise after E. coli LPS in mice; format: in vivo; settings: RsDPLA 100 μg and 1 mg, 60 and 90 min before E. coli LPS 1 μg and 5 μg i.p.
[5] = test system: chick embryo; test: Chick embryo lethality test; format: in vivo
Description: It was characterized as the tetramethyl derivative by plasma desorption mass spectrometry. It is nontoxic based on the chick embryo lethality test (CELD50 >20 μg), and its structure is shown in Formula II.

[6] = test system: RAW 264.7 murine macrophage cells; settings: as reported; cited from earlier work
[7] = test system: mice; test: LD50 in galactosamine-sensitized mice; format: in vivo
Description: Although the diphospholipids from E. coli and Salmonella strains are highly toxic, DPLA having the structure of the diphosphoryllipid A from R. sphaeroides is not. The LD50 of DPLA in galactosamine--sensitized mice was greater than 20 mg/kg.

[8] = test system: 70Z/3 cells; format: cell-based; settings: Table 4
Description: ^1 Corrected for background of 5% fluorescence.
^2 The DPLA stimulated 7OZ/3 preB cells to the extent of from 2.5-6.0
fluorescence at concentrations of 1.0-10 mg/ml. In the competitive
inhibition experiment, the cells were first exposed to DPLA for 2 hours
before adding the ReLPS. In all experiments, the ReLPS and DPLA were
complexed with bovine serum albumin.
In this experiment, 0.1 μg/ml of ReLPS and 3.0 μg/ml of DPLA were
^1 The time of pre/post treatment of 7OZ/3 cells with DPLA relative t
the time of addition of ReLPS are indicated.

Structure (SMILES): CCCCCCC=CCCCCCC(=O)OC(CCCCCCCCCCC)CC(=O)NC1C(OCC2OC(OP(=O)(O)O)C(NC(=O)CC(=O)CCCCCCCCCCC)C(OC(=O)CC(O)CCCCCCC)C2O)OC(CO)C(OP(=O)(O)O)C1OC(=O)CC(O)CCCCCCC (stereo not drawn) [DPLA]
- induction of cachectin (immunoblot) ([1]; DPLA 1-1000 ng/ml): not able to induce the formation of cachectin
- inhibition of ReLPS-induced cachectin (immunoblot) ([1]; DPLA 10^3 ng/ml + ReLPS 10 ng/ml (ReLPS:DPLA 1:100)): definite inhibition
- induction of cachectin (immunoblot) ([1]; DPLA 10^4 ng/ml): only slight induction
- blocking of ReLPS-induced cachectin/TNF (immunoblot) ([1]; in words): blocks the induction of cachectin; also recorded: blocking of induction
- DPLA concentration at which inhibition was probably maximal ([1]; with ReLPS 10 ng/ml): < 10^4 ng/ml
- induction of TNF ([2]; DPLA alone 10^4 ng/ml): measurable but low level in the induction of TNF
- inhibition at 0.01 µg/mL ([2]; Mus musculus, RAW264.7, Table 3, DPLA 10 ng/ml, ReLPS 1.0 ng/ml (ReLPS:DPLA 1:10), read-out: Inhibition of induction of TNF by ReLPS): 55%
- inhibition at 0.1 µg/mL ([2]; Mus musculus, RAW264.7, Table 3, DPLA 100 ng/ml, ReLPS 1.0 ng/ml (1:100), read-out: Inhibition of induction of TNF by ReLPS): 95%
- inhibition at 10 µg/mL ([2]; Mus musculus, RAW264.7, Table 3, DPLA 10000 ng/ml, ReLPS 1.0 ng/ml (1:10^4), read-out: Inhibition of induction of TNF by ReLPS): 81%
- induction of TNF ([2]; RAW 264.7 cells, indicator cell line L929): not effective in the induction of TNF; also recorded: lack of induction
- blocking of TNF induction by ReLPS ([2]; RAW 264.7 cells, in words): effectively antagonize the induction of TNF by toxic ReLPS in a dose-dependent manner; also recorded: block the induction of cachectin (TNF); also recorded: blocking of induction
- Dilution to get 50% killing ([2]; DPLA 10 ng/ml 2 h before ReLPS 1.0 ng/ml): 829
- Dilution to get 50% killing ([2]; DPLA 100 ng/ml 2 h before ReLPS 1.0 ng/ml): 112
- Dilution to get 50% killing ([2]; DPLA 1000 ng/ml 2 h before ReLPS 1.0 ng/ml): 86
- Dilution to get 50% killing ([2]; DPLA 10,000 ng/ml 2 h before ReLPS 1.0 ng/ml): 234
- Dilution to get 50% killing ([2]; DPLA alone 10 ng/ml): 0
- Dilution to get 50% killing ([2]; DPLA alone 100 ng/ml): 0
- Dilution to get 50% killing ([2]; DPLA alone 1000 ng/ml): 71
- Dilution to get 50% killing ([2]; DPLA alone 10,000 ng/ml): 346
- Dilution for 50% killing ([2]; Table 3, DPLA 10 ng/ml 2 h before ReLPS 1.0 ng/ml): 2287
- Dilution for 50% killing ([2]; Table 3, DPLA 100 ng/ml 2 h before ReLPS 1.0 ng/ml): 269
- Dilution for 50% killing ([2]; Table 3, DPLA 1000 ng/ml 2 h before ReLPS 1.0 ng/ml): 201
- Dilution for 50% killing ([2]; Table 3, DPLA 10000 ng/ml 2 h before ReLPS 1.0 ng/ml): 973
- Dilution for 50% killing ([2]; Table 3, DPLA alone 10 ng/ml, complexed with BSA): < 10
- Dilution for 50% killing ([2]; Table 3, DPLA alone 100 ng/ml, complexed with BSA): 19
- Dilution for 50% killing ([2]; Table 3, DPLA alone 1000 ng/ml, complexed with BSA): 201
- Dilution for 50% killing ([2]; Table 3, DPLA alone 10000 ng/ml, complexed with BSA): 764
- endotoxic activity [3]: nontoxic
- endotoxic activity ([3]; listed as R. sphaeroides DPLA): not endotoxic
- endotoxic activity ([3]; listed as pentaacyl DPLA): lacks endotoxic activity; also recorded: no endotoxic activity
- rise in serum TNF [4]: blocked a rise in serum TNF
- CELD50 [5]: > 20 µg
- blocking of LPS-induced TNF [6]: competes successfully with toxic LPS to block the induction of TNF in a dose-dependent manner
- induction of TNF [6]: fails to induce the synthesis and release of TNF by macrophages
- LD50 [7]: greater than 20 mg/kg
- Activation (% fluorescence) ([8]; DPLA 0.1 μg/ml 2 h before ReLPS 0.1 μg/ml): 52 % fluorescence
- Activation (% fluorescence) ([8]; DPLA 0.3 μg/ml 2 h before ReLPS 0.1 μg/ml): 45 % fluorescence
- Activation (% fluorescence) ([8]; DPLA 1.0 μg/ml 2 h before ReLPS 0.1 μg/ml): 26.5 % fluorescence
- Activation (% fluorescence) ([8]; DPLA 3.0 μg/ml 2 h before ReLPS 0.1 μg/ml): 14 % fluorescence
